Measurements: ChEMBL document CHEMBL3991601, “The target landscape of clinical kinase drugs” (Science, 2017)
Counter-ions that a name gives are not always drawn. The source made the active and inactive calls. For most assays here, no stated cut-off is given here; in the data, actives have a measured Kd and inactives only a lower limit.

Tests used:
[1] = target: T1, Cytochrome c1, heme protein, mitochondrial (Homo sapiens, UniProt P08574)
T1 sequence (P08574 whole entry): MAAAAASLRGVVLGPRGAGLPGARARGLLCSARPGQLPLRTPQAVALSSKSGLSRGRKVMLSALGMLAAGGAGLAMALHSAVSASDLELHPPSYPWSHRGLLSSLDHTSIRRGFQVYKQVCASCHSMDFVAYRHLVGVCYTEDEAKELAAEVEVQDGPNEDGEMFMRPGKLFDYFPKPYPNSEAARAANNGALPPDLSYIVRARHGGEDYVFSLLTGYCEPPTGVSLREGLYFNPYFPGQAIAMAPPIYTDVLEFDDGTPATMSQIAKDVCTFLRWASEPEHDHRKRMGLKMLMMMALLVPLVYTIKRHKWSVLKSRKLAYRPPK

[2] = target: T2, ATP-dependent RNA helicase DDX1 (Homo sapiens, UniProt Q92499)
T2 sequence (Q92499 whole entry): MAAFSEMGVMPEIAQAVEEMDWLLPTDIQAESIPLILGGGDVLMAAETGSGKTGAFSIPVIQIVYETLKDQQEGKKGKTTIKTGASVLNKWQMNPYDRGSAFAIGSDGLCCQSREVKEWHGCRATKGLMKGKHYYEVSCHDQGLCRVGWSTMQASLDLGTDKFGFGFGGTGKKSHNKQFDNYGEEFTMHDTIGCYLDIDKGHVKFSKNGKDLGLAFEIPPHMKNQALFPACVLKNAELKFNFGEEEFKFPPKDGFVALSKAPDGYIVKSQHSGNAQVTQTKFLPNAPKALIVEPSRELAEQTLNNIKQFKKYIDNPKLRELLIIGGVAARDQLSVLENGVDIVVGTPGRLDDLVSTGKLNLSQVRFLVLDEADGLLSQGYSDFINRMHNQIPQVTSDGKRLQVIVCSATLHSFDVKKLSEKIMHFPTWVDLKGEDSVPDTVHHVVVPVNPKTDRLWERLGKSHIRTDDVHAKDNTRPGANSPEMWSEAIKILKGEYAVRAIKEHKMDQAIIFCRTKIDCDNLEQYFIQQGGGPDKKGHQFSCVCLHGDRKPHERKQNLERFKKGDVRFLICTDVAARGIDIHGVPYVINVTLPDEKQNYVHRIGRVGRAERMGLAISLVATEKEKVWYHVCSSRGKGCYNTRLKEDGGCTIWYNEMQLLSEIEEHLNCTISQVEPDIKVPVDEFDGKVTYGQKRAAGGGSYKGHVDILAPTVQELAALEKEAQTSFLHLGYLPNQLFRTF

[3] = target: Serine/threonine-protein kinase N1 (Homo sapiens, UniProt Q16512)
Serine/threonine-protein kinase N1, sequence (Q16512 whole entry): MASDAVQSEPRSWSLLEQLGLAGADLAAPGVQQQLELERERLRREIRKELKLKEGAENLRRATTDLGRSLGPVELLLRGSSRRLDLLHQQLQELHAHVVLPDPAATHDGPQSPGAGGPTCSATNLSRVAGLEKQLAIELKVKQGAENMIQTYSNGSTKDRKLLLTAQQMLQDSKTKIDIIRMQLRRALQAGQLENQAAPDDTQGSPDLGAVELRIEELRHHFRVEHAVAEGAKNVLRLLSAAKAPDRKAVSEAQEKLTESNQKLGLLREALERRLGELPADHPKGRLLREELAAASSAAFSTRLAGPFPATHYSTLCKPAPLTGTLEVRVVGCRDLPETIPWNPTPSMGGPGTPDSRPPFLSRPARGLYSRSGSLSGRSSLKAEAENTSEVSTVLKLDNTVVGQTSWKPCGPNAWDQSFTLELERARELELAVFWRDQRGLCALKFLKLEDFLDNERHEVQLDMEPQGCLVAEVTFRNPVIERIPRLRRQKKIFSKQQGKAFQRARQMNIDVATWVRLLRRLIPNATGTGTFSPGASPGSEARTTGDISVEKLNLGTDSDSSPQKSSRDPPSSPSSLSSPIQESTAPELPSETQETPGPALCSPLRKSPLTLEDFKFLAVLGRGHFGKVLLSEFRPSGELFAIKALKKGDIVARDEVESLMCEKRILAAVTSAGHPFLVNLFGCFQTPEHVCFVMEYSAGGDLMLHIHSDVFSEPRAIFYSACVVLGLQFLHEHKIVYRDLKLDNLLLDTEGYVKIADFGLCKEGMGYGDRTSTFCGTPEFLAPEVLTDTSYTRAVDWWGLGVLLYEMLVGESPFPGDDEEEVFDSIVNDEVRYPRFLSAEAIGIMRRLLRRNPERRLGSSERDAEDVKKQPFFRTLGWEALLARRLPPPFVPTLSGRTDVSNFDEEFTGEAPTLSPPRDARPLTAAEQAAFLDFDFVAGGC

[4] = target: T3, Bone morphogenetic protein receptor type-2 (Homo sapiens, UniProt Q13873)
T3 sequence (Q13873 whole entry): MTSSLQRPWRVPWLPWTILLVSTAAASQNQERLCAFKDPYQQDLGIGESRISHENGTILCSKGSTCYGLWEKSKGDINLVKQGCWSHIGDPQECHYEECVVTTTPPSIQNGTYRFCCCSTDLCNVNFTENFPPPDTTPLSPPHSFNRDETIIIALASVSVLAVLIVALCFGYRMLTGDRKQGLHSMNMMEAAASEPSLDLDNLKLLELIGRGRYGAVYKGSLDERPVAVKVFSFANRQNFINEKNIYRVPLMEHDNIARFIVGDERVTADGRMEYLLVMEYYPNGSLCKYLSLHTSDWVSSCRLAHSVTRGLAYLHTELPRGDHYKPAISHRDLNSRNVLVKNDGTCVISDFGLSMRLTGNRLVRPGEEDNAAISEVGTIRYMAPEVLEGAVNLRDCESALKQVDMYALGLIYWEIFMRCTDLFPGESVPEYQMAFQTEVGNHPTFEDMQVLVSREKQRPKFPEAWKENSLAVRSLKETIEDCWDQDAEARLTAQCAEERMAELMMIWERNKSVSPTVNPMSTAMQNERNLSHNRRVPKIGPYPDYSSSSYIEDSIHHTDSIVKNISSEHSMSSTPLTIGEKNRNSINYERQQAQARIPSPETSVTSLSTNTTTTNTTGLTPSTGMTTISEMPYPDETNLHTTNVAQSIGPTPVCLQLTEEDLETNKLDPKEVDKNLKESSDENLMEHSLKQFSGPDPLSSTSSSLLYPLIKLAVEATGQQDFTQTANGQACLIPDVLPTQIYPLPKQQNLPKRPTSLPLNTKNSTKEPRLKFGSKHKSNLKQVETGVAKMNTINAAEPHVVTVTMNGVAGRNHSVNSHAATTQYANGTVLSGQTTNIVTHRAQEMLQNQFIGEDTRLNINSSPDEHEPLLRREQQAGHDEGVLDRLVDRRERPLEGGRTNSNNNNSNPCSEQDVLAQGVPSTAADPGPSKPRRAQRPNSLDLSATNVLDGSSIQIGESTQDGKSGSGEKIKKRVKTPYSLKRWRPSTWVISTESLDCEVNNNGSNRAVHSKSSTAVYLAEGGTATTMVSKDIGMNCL

[5] = target: Proto-oncogene tyrosine-protein kinase Src (Homo sapiens, UniProt P12931)
Proto-oncogene tyrosine-protein kinase Src, sequence (P12931 2-536 limits assumed): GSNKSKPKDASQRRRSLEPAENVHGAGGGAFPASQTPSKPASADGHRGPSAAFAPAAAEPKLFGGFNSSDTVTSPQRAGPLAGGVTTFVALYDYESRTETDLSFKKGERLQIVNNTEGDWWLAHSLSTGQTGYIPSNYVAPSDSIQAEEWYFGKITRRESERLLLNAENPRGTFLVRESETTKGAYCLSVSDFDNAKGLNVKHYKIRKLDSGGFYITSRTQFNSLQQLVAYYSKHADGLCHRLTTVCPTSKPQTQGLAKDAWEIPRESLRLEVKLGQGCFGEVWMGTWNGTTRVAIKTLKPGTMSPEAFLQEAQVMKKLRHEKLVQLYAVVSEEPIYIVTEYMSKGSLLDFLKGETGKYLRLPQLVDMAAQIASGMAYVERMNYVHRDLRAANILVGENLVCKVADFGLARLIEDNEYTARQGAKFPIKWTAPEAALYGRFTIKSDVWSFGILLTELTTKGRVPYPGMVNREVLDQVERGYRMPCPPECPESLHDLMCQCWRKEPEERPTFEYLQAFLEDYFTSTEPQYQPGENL

[6] = target: Tyrosine-protein kinase SYK (Homo sapiens, UniProt P43405)
[7] = target: T4, Phosphorylase b kinase gamma catalytic chain, liver/testis isoform (Homo sapiens, UniProt P15735)
T4 sequence (P15735 whole entry): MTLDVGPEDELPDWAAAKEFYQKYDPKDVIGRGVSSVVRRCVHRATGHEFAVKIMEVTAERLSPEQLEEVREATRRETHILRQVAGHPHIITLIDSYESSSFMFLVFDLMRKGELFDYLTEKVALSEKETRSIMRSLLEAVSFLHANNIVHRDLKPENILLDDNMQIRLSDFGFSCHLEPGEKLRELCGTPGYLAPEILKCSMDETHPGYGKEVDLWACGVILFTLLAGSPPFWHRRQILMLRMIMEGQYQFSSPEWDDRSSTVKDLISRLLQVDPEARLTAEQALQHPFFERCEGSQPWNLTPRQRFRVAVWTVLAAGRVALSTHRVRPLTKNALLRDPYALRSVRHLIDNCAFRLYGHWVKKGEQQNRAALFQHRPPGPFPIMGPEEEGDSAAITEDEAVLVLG

[8] = target: Mitogen-activated protein kinase kinase kinase kinase 4 (Homo sapiens, UniProt O95819)
Mitogen-activated protein kinase kinase kinase kinase 4, sequence (O95819 whole entry): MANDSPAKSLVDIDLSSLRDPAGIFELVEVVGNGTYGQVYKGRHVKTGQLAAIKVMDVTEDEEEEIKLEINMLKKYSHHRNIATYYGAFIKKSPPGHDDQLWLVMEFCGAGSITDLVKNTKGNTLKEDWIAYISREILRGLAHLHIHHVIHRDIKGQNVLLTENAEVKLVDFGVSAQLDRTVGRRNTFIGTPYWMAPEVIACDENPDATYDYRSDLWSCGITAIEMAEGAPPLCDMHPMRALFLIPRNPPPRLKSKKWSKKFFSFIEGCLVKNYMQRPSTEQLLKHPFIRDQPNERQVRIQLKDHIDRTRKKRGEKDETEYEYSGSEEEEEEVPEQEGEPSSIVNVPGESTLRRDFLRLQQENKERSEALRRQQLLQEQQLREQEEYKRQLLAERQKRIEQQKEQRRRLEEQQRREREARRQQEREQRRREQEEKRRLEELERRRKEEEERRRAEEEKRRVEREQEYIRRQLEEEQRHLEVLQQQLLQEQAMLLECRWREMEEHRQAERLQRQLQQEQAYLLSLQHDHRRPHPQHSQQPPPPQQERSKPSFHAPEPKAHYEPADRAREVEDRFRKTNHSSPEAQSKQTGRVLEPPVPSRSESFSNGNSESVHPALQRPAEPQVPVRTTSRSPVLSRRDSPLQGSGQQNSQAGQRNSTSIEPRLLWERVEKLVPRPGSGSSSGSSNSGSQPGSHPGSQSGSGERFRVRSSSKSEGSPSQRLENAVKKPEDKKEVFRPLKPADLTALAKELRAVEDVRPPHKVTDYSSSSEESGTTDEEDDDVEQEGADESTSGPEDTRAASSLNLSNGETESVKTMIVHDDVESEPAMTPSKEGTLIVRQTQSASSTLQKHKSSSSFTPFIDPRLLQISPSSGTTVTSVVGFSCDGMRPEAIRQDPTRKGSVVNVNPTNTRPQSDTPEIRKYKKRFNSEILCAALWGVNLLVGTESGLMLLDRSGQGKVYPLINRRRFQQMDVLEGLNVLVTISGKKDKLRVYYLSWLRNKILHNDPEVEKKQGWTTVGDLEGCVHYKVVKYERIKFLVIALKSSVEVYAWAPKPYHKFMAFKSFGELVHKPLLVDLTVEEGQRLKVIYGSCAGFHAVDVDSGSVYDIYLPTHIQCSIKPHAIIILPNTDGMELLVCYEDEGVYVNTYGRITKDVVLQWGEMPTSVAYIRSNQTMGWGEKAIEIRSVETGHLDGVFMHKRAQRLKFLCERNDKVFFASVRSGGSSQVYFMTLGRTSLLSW

SMILES	Kd [1]	Kd [2]	Kd [3]	Kd [4]	Kd [5]	Kd [6]	Kd [7]	Kd [8]
Nc1ncnc2c1c(-c1cccc(OCc3ccccc3)c1)cn2[C@H]1C[C@@H](CN2CCC2)C1 [AEW-541]	> 30 µM (inactive)	> 30 µM (inactive)	> 30 µM (inactive)	> 30 µM (inactive)	3.55 µM (active)	> 30 µM (inactive)	> 30 µM (inactive)	> 30 µM (inactive)
Cc1nc(NC(=O)N2CCC[C@H]2C(N)=O)sc1-c1ccnc(C(C)(C)C(F)(F)F)c1 [ALPELISIB]	> 30 µM (inactive)	> 30 µM (inactive)	> 30 µM (inactive)	> 30 µM (inactive)	> 30 µM (inactive)	> 30 µM (inactive)	> 30 µM (inactive)	> 30 µM (inactive)
Cc1csc(-c2nnc(Nc3ccc(Oc4ncccc4-c4ccnc(N)n4)cc3)c3ccccc23)c1 [AMG-900]	> 30 µM (inactive)	> 30 µM (inactive)	> 30 µM (inactive)	> 30 µM (inactive)	> 30 µM (inactive)	> 30 µM (inactive)	> 30 µM (inactive)	> 30 µM (inactive)
C=CC(=O)Nc1cc2c(Nc3ccc(F)c(Cl)c3)ncnc2cc1C#CC(C)(C)N1CCN(C)CC1 [AV-412 FREE BASE]	> 30 µM (inactive)	> 30 µM (inactive)	> 30 µM (inactive)	> 30 µM (inactive)	> 30 µM (inactive)	> 30 µM (inactive)	> 30 µM (inactive)	> 30 µM (inactive)
COc1cc([C@@H]2c3cc4c(cc3[C@H](O)[C@H]3COC(=O)[C@@H]23)OCO4)cc(OC)c1OC [AXL-1717]	> 30 µM (inactive)	> 30 µM (inactive)	> 30 µM (inactive)	> 30 µM (inactive)	> 30 µM (inactive)	> 30 µM (inactive)	> 30 µM (inactive)	> 30 µM (inactive)
Cc1cc(C(=O)NOCCO)c(Nc2ccc(I)cc2F)n(C)c1=O [AZD-8330]	> 30 µM (inactive)	> 30 µM (inactive)	> 30 µM (inactive)	> 30 µM (inactive)	> 30 µM (inactive)	> 30 µM (inactive)	> 30 µM (inactive)	> 30 µM (inactive)
Cn1cnc2c(F)c(Nc3ccc(Br)cc3F)c(C(=O)NOCCO)cc21 [BINIMETINIB]	> 30 µM (inactive)	> 30 µM (inactive)	> 30 µM (inactive)	> 30 µM (inactive)	> 30 µM (inactive)	> 30 µM (inactive)	> 30 µM (inactive)	> 30 µM (inactive)
CCn1c(C(=O)N(C2CC2)C2CC2)cc2c3c(ncn3C)c(Nc3cc(C)n(C)n3)nc21 [BMS-911543]	> 30 µM (inactive)	> 30 µM (inactive)	> 30 µM (inactive)	> 30 µM (inactive)	> 30 µM (inactive)	> 30 µM (inactive)	> 30 µM (inactive)	> 30 µM (inactive)
COc1cc2ncnc(Oc3cccc(NC(=O)Nc4cc(C(C)(C)C(F)(F)F)on4)c3)c2cc1OC [CEP-32496]	> 30 µM (inactive)	> 30 µM (inactive)	> 30 µM (inactive)	> 30 µM (inactive)	> 30 µM (inactive)	> 30 µM (inactive)	> 30 µM (inactive)	> 30 µM (inactive)
Cc1cc(Nc2ncc(Cl)c(Nc3ccccc3S(=O)(=O)C(C)C)n2)c(OC(C)C)cc1C1CCNCC1 [CERITINIB]	> 30 µM (inactive)	> 30 µM (inactive)	> 30 µM (inactive)	> 30 µM (inactive)	> 30 µM (inactive)	> 30 µM (inactive)	> 30 µM (inactive)	> 30 µM (inactive)
COc1c(OCCCN2CCOCC2)ccc2c1N=C(NC(=O)c1cnc(N)nc1)N1CCN=C21 [COPANLISIB]	> 30 µM (inactive)	> 30 µM (inactive)	> 30 µM (inactive)	> 30 µM (inactive)	> 30 µM (inactive)	> 30 µM (inactive)	> 30 µM (inactive)	> 30 µM (inactive)
COCC(=O)NC/C=C/c1ccc2ncnc(Nc3ccc(Oc4ccc(C)nc4)c(C)c3)c2c1 [CP-724714]	> 30 µM (inactive)	> 30 µM (inactive)	> 30 µM (inactive)	> 30 µM (inactive)	> 30 µM (inactive)	> 30 µM (inactive)	> 30 µM (inactive)	> 30 µM (inactive)
C#Cc1cccc(Nc2ncnc3cc(OC)c(OCCCCCCC(=O)NO)cc23)c1 [CUDC-101]	> 30 µM (inactive)	> 30 µM (inactive)	> 30 µM (inactive)	> 30 µM (inactive)	> 30 µM (inactive)	> 30 µM (inactive)	> 30 µM (inactive)	> 30 µM (inactive)
CCS(=O)(=O)N1CCN(c2ccc(Nc3ncc(C(N)=O)c(NC4CC4)n3)cc2)CC1 [Cerdulatinib Hydrochloride]	> 30 µM (inactive)	> 30 µM (inactive)	> 30 µM (inactive)	4.86 µM (active)	> 30 µM (inactive)	0.44 µM (active)	> 30 µM (inactive)	3.06 µM (active)
CC(C)(C)c1nc(-c2cccc(NS(=O)(=O)c3c(F)cccc3F)c2F)c(-c2ccnc(N)n2)s1 [DABRAFENIB]	> 30 µM (inactive)	> 30 µM (inactive)	> 30 µM (inactive)	> 30 µM (inactive)	> 30 µM (inactive)	> 30 µM (inactive)	> 30 µM (inactive)	> 30 µM (inactive)
Cc1nc2cc(-n3ncc(C(=O)c4cc5ccccc5[nH]4)c3N)ccc2[nH]1 [FGFR INHIBITOR DEBIO 1347]	> 30 µM (inactive)	> 30 µM (inactive)	> 30 µM (inactive)	> 30 µM (inactive)	> 30 µM (inactive)	> 30 µM (inactive)	> 30 µM (inactive)	> 30 µM (inactive)
O=C(Nc1nc2cccc(-c3ccc(CN4CCS(=O)(=O)CC4)cc3)n2n1)C1CC1 [FILGOTINIB]	> 30 µM (inactive)	> 30 µM (inactive)	> 30 µM (inactive)	> 30 µM (inactive)	> 30 µM (inactive)	> 30 µM (inactive)	> 30 µM (inactive)	> 30 µM (inactive)
